Data: patent US4356167A, “Liposome drug delivery systems” (Sandoz, Inc., priority 1981, dated 1982)
Values joined by “and” are separate entries in the source; they are usually repeats but may differ in a detail not shown here. Identical values can stand only once.

Tested on: blood glucose
Experiment: Blood glucose levels in mice after oral or i.m. dosing of insulin liposomes (Example 2)
Assay type: in vivo
Settings: 10μ/kg
Description: Insulin concentration of the liposomes was 11.69%. Suspensions of the liposome compositions A and B were given orally to mice at concentrations of A-50 U/0.1 ml/10 gms. of body weight; and B-25 U/0.1 ml/10 gms of body weight. A control group received 0.5% carboxymethyl cellulose concurrently.
Composition A was diluted 1:10 for injection i.m. as a control.
After two and four hours the animals were sacrificed by anesthetizing with 85 mg/kg of sodium hexobarbital i.p. and collecting blood via cardiac puncture. The collected blood was placed in an Auto Analyzer Cup containing 0.025 cc. of heparin 1000 units/ml. The blood samples were capped, shaken, and kept in an ice bucket. Glucose was determined by the Auto Analyzer potassium ferriccyanide method No. N-2b.
Carboxymethyl cellulose given either by p.o. or i.m. route has the same effect on blood glucose. Therefore, the test materials whether given p.o. or i.m. can be related to the carboxymethyl cellulose control.

Bovine Pancreatic Insulin: Bovine pancreatic insulin, Sigma Chemical
% Δ blood glucose 2 Hrs. Post (down arrow, decrease vs control) (2 hrs): 82%
Blood glucose levels 2 Hrs. Post, individual animals (2 hrs): 14 MG/100 ml and 12 MG/100 ml and 16 MG/100 ml
Blood glucose levels 2 Hrs. Post, mean (2 hrs): 14.0 ± 8 MG/100 ml
% Δ blood glucose 4 Hrs. Post (down arrow, decrease vs control) (4 hrs): 75%
Blood glucose levels 4 Hrs. Post, individual animals (4 hrs): 37 MG/100 ml and 10 MG/100 ml and 27 MG/100 ml and 31 MG/100 ml
Blood glucose levels 4 Hrs. Post, mean (4 hrs): 26.3 MG/100 ml
